Data set [1] is described as follows: Absorption and emission spectra, fluorescence quantum efficiency in EtOH, PBS and lipid vesicles (MLV). It counts as physicochemical. The protocol: FIGS. 2A-2C are plots showing absorption and emission spectra of 2a, in comparison with ElectroFluor630, in various solvent environments: MLV, EtOH, and PBS. Multilamellar lipid vesicle suspension (MLV) was prepared by sonicating soybean phosphatidylcholine in PBS buffer (2 mg/mL) to mimic the cell membrane environment. The emission spectra in ethanol and PBS buffer were scaled 10 and 20 times respectively relative to the emission spectra in MLV. Excitation wavelength is 580 nm for emission spectra.
All chemicals were purchased from commercial sources (Sigma Aldrich, Acros, TCI America, Combi-Blocks, and others) and used without further purification. Column chromatography was generally performed on COMBIFLASH NextGen 300 using normal phase silica columns except that for some final dye products amine silica columns were used. Thin layer chromatography (TLC) was carried out on EM 60 F-254 plastic TLC plates. NMR spectra were recorded on Varian 400 MHz, 500 MHz, and 800 MHz instruments at the UConn Heath Structural Biology Facility. All spectra are referenced internally to TMS or residual solvent signals. Electrospray ionization (ESI) high-resolution mass spectra (HRMS) were obtained on a QStar Elite (AB Sciex) at the Department of Chemistry, University of Connecticut. UV/Vis absorption spectra were recorded on a UV-Visible spectrophotometer (Shimadzu, UV-1601PC) and fluorescence emission spectra on a Horiba Fluorolog spectrofluorometer (Horiba, Inc., Edison, NJ). Fluorescence quantum yield for dyes was determined by a relative method using Rhodamine 6G (excited at 480 nm, FQY=0.95 in EtOH) or cresyl violet (excited at 580 nm, FQY=0.54 in MeOH) as the references.
Absorbance and the fluorescence properties of the new VSDs were determined. The absorption and emission spectra for 2a, together with ElectroFluor630, in aqueous buffer (PBS), ethanol, and when intercalated in the membrane of lipid vesicles are shown in FIGS. 2A-C. […] This is particularly advantageous for fluorescence imaging because background fluorescence from unbound dye is negligible. Another characteristic of the hemicyanine VSDs that is preserved by 2a in FIGS. 2A-C is the large Stokes shift between the excitation and emission maxima. 125 nm for the membrane-bound dye. This is also a benefit for fluorescence detection and imaging, as the fluorescence can be readily filtered from scattered exciting light. The broad wavelength window afforded by the spectra is also an important benefit for the design of experiments with multiple fluorescent sensors. For comparative purposes, certain VSDs are shown below.
As expected, the spectra are largely insensitive to alkyl substitution. Table 1 also includes data for ElectroFluor630 (aka Di-4-ANEQ (F) PTEA) for comparison. The absorption maxima of 2a in ethanol (EtOH), aqueous buffer (PBS) and when bound to lipid membranes (multilamellar vesicles, MLV) are red shifted by 77 nm, 63 nm and 63 nm, respectively, relative to ElectroFluor630, which is isostructural to 2a. […] The absorption and emission spectra of 2a, 2b, and 2c are all shifted to the red by 50-65 nm relative to ElectroFluor630.

Data set [2] can be described thus: Voltage sensitivity on voltage-clamped hemispherical lipid bilayer. As to conditions: long pass emission filter. The source says:
It is known that optimal voltage sensitivity can be obtained by measuring the compounds on a voltage-clamped hemispherical bilayer apparatus. The apparatus can include a patch-clamp amplifier, such as a HEKA EPC-8 patch-clamp amplifier. Measurements can be obtained by stepping the membrane potential between two different potentials for a set time lapse. such as, for example, −110 and −60 mV every 10 ms.
Testing VSDs in a voltage-clamped hemispherical lipid bilayer allows one to determine the sensitivity of the VSDs as a function of excitation wavelength. This system has a Teflon tube filled with KCl and is immersed in a KCl solution in a cuvette. A lipid bubble is blown at the tip of the tube and spontaneously forms a bilayer membrane. The VSD to be tested is introduced on one side of the bilayer, usually in the cuvette. Electrodes in the tube and in the cuvette allow the imposition of a voltage across the membrane and a tungsten lamp coupled to a monochromator allows excitation wavelength dependence of the fluorescence response to voltage steps to be determined. This screening approach has allows for the comparison of the efficacy of newly developed VSDs in a well-controlled, consistent manner and to also determine excitation and emission wavelengths with optimal.
Voltage sensitivities of 2a as a function of voltage is shown in FIG. 3A for excitation at 730 nm and 570 nm. The voltage response is linear over the range of −100 mV to +100 mV; 570 nm is slightly to the blue of the isosbestic point, accounting for the weak but inverted sensitivity at this wavelength. […] This opposite polarity at the blue and red edges underlies the ability to use electrochromic hemicyanine dyes for dual-wavelength ratio imaging. The precise location of the isosbestic point in the excitation wavelength depends on the emission filter used because the emission spectrum is also voltage dependent for hemicyanine dyes.
The magnitude and wavelengths of the optimal voltage sensitivities of all the VSDs on the voltage-clamped hemispherical bilayer are included in the third column of Table 1.

Consider `CCCCCCN(CCCCCC)c1ccc2c(c1)OCC(/C=C/c1c(F)c[n+](CCC[N+](CC)(CC)CC)c3ccccc13)=C2.[Br-].[Br-]` [2c], for which the results for the absorption maximum in data set [1] (in EtOH), in data set [1] (in MLV (multilamellar lipid vesicles)) and in data set [1] (in PBS) were 696 nm, 599 nm and 597 nm, respectively. Moreover, the “Fluorescence quantum efficiency (FQE)” value in data set [1] (in lipid vesicle suspensions) is 0.10. In data set [1] (membrane-bound (MLV)), this compound returned an emission maximum of 734 nm. In data set [2], the “Ex (excitation wavelength of optimal voltage sensitivity)” value is given as 730 nm. Also, the “Voltage Sensitivity ΔF/F per 100 mV” value in data set [2] (magnitude at optimal Ex/Em) was 12%.

The record behind these values is patent US20260048151A1, “HEMICYANINE PUSH-PULL DYES BASED ON CHROMENE ELECTRON DONORS” (UNIVERSITY OF CONNECTICUT, priority 2022, published 2026).
